In EPA's CvTdb concentration-time database:

Experiments:
[1] = test system: Rat; test: concentration in liver after dosing; conditions: dosed: Perfluorohexanoic Acid, 80 mg/kg, oral
[2] = test system: Rat; test: concentration in brain after dosing; conditions: dosed: Perfluorohexanoic Acid, 80 mg/kg, oral
[3] = test system: Rat; test: concentration in kidney after dosing; conditions: dosed: Perfluorohexanoic Acid, 80 mg/kg, oral
[4] = test system: Rat; test: concentration in plasma after dosing

O=C(O)C(F)(F)C(F)(F)C(F)(F)C(F)(F)C(F)(F)F [Perfluorohexanoic Acid]
Conditions	concentration in brain, [2] [ng/g]	concentration in kidney, [3] [ng/g]	concentration in liver, [1] [ng/g]
0.5 h, Female, Harlan Sprague Dawley	1210	55900	32800
0.5 h, Male, Harlan Sprague Dawley	2270	207000	105000
1 h, Female, Harlan Sprague Dawley	1770	98400	42200
1 h, Male, Harlan Sprague Dawley	2670	74100	87200
3 h, Female, Harlan Sprague Dawley	703	45000	8510
3 h, Male, Harlan Sprague Dawley	1170	44300	29600
3 h, Male, Harlan Sprague Dawley - this seems too small	799	56500	36100
6 h, Female, Harlan Sprague Dawley	–	14200	5010
6 h, Male, Harlan Sprague Dawley	495	10900	9650
12 h, Female, Harlan Sprague Dawley	–	663	–
12 h, Male, Harlan Sprague Dawley	–	2880	3140

concentration in plasma [ng/mL], [4], dosed: Perfluorohexanoic Acid
Conditions	40 mg/kg	80 mg/kg
0.25 h, iv, Male, F344	21800	–
0.25 h, oral, Male, Harlan Sprague Dawley	27900	92000
0.5 h, iv, Female, Harlan Sprague-Dawley	6320	–
0.5 h, iv, Male, F344	26100	–
0.5 h, oral, Male, Harlan Sprague Dawley	64700	151000
0.75 h, iv, Female, Harlan Sprague-Dawley	1990	–
0.75 h, iv, Male, F344	12600	–
0.75 h, oral, Male, Harlan Sprague Dawley	55100	110000
1 h, iv, Female, Harlan Sprague-Dawley	327	–
1 h, iv, Male, F344	9120	–
1 h, oral, Male, Harlan Sprague Dawley	48300	127000
1.5 h, iv, Male, F344	7580	–
3 h, iv, Male, F344	3740	–
3 h, oral, Male, Harlan Sprague Dawley	34400	60100
3 h, oral, Male, Harlan Sprague Dawley - this seems too small	–	59500
5 min, iv, Male, F344	22900	–
5 min, oral, Male, Harlan Sprague Dawley	14600	59900
6 h, iv, Male, F344	3840	–
6 h, oral, Male, Harlan Sprague Dawley	18300	27700
9 h, oral, Male, Harlan Sprague Dawley	3710	3460
12 h, iv, Male, F344	57.2	–
12 h, oral, Male, Harlan Sprague Dawley	2040	–
24 h, iv, Male, F344	68.1	–
24 h, oral, Male, Harlan Sprague Dawley	222	627

Cc1ccc(C)c(OCCCC(C)(C)C(=O)O)c1 [Gemfibrozil]
concentration in plasma [ng/mL], [4], dosed: Gemfibrozil, oral, Male, Sprague-Dawley
Conditions	4.29 mg/kg	50 mg/kg	100 mg/kg
0.25 h	250	17900	67400
0.5 h	314	15700	34600
1 h	147	5640	26200
2 h	307	3310	8500
4 h	566	8040	6870
5 min	395	1580	13300
6 h	401	9040	19600
10 h	286	4860	–
10 min	2260	7420	40200
15 h	137	1870	–
18 h	108	975	2190
24 h	128	920	1800
